In ChEMBL document CHEMBL4177672 (Bioorg Med Chem Lett, 2017):
Converted amounts (≈) assume the structure as drawn.

What was measured:
Vero = assay: Cytotoxicity against African green monkey Vero cells after 72 hrs by MTS-PMS assay; type: cell-based; details: Chlorocebus sabaeus
Homo sapiens = assay: Terminal half life in healthy human subjects dosed as single 400 mg dose on Day 1 followed by PK sampling (Days 1 to 14); type: ADME, organism-based; details: in vivo
[1] = tested on: Mycolicibacterium smegmatis; assay: Antitubercular activity against Mycobacterium smegmatis ATCC 607 incubated at 37 degC for 7 days by resazurin dye based fluorometry; type: functional; details: ATCC 607, 168 h
[2] = tested on: Mycobacterium tuberculosis; assay: Growth inhibition of Mycobacterium tuberculosis H37Rv under aerobic condition after 4 days by MABA method; type: functional; details: 96 h

SMILES | IC50 (Vero) | other results
COc1nc2ccc(Br)cc2cc1[C@@H](c1ccnc(OC)c1OC)[C@@](O)(CCN(C)C)c1cccc(C)c1 | > 10 µg/mL | –
COc1nc2ccc(Br)cc2cc1[C@@H](c1cccnc1N(C)C)[C@@](O)(CCN(C)C)c1cccc(F)c1 | > 10 µg/mL | –
COc1nc2ccc(Br)cc2cc1[C@@H](c1ccccc1)[C@@](O)(CCN(C)C)c1cccc2ccccc12 [BEDAQUILINE] | > 10 µg/mL | beta t1/2 (Homo sapiens): 5 to 6 months
COc1nc2ccc(Br)cc2cc1[C@@H](c1cncc(C)c1)[C@@](O)(CCN(C)C)c1cccc(F)c1 | > 10 µg/mL | –
COc1nc2ccc(Br)cc2cc1C(c1ccoc1)C(O)(CCN(C)C)c1ccccc1 (racemic) | – | IC90 [1]: 0.06 to 1.57 µg/mL (≈ 0.121 to 3.17 µM)
COc1nc2ccc(Br)cc2cc1[C@@H](c1ccc(N(C)C)nc1)[C@@](O)(CCN(C)C)c1cccc(F)c1 | > 10 µg/mL | –
COc1cc([C@H](c2cc3cc(Br)ccc3nc2OC)[C@@](O)(CCN(C)C)c2cccc(F)c2)cnc1OC | > 10 µg/mL | –
COc1nc2ccc(Br)cc2cc1[C@@H](c1ccnc(OC)c1OC)[C@@](O)(CCN(C)C)c1cccc(OC(F)F)c1 | > 10 µg/mL | –
COc1ncccc1C(c1cc2cc(Br)ccc2nc1OC)C(O)(CCN(C)C)c1cccc2c1OCO2 (mixture of isomers) | – | MIC90 [2]: 0.24 µg/mL
CCSc1ccc([C@H](c2cc3cc(Br)ccc3nc2OC)[C@@](O)(CCN(C)C)c2cccc(F)c2)cn1 | > 10 µg/mL | –
COc1nc2ccc(Br)cc2cc1[C@@H](c1cc(C)c(C)s1)[C@@](O)(CCN(C)C)c1cccc(F)c1 | > 10 µg/mL | –
COc1nc2ccc(Br)cc2cc1[C@@H](c1ccnc(OC)c1OC)[C@@](O)(CCN(C)C)c1cccc(C#N)c1 | > 10 µg/mL | –
